{"source": "paper PMC8766756", "about": "“Insights on Cancer Cell Inhibition, Subcellular Activities, and Kinase Profile of Phenylacetamides Pending 1H-Imidazol-5-One Variants” (Frontiers in Pharmacology, 2022)", "test_in_all_cases": "PamChip tyrosine kinase microarray", "format_in_all_cases": "biochemical", "details_in_all_cases": "0.1 µM, HL60 lysate", "key": {"[1]": {"target": "T1, Arg (P42684) (Homo sapiens, UniProt P42684)", "T1 construct": "purchased PamGene (PamChip PTK array, Upstream Kinase Analysis)", "T1 sequence (P42684 whole entry)": "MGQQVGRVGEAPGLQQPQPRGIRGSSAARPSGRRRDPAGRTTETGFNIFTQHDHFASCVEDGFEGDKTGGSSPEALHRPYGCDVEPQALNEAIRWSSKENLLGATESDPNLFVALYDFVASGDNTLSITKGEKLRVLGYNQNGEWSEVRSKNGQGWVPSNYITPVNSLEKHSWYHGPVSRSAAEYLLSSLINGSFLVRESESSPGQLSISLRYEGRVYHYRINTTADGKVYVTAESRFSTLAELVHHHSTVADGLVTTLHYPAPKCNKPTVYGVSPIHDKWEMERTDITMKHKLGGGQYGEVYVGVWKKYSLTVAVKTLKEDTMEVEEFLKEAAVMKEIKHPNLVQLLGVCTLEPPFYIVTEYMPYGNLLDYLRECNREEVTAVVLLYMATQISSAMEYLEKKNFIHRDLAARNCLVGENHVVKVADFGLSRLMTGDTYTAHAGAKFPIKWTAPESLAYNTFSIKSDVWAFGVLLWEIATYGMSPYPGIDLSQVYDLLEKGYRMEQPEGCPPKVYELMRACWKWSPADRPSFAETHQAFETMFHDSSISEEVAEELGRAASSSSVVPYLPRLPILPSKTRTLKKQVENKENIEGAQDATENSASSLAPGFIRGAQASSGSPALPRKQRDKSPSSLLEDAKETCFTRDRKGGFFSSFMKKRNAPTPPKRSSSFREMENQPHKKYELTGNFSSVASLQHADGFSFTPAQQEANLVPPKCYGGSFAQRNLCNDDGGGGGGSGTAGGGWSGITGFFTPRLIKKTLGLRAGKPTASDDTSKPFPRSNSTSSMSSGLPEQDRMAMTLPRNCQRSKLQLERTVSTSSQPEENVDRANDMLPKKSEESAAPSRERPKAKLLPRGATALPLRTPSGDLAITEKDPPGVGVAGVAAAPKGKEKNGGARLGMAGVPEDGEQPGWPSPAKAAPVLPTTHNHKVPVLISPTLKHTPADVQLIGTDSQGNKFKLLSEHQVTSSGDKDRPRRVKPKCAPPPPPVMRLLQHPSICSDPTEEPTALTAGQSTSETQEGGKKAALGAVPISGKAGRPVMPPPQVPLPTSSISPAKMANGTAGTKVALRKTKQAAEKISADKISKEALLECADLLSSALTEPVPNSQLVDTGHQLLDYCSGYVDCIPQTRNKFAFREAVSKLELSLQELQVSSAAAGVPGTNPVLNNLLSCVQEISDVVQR", "procedure,_shortened": "(§1)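 HL60 (AML) cell lysate was spiked with compound at 0.001, 0.01, 0.1, 1, 10 and 50 µM, or 2% v/v DMSO as control, then profiled in technical replicates on a tyrosine kinase peptide array of 196 phosphosites. Kinase activity was inferred from peptide-set changes using an upstream kinase tool.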"}, "[2]": {"target": "T2, FAK1 (Q05397) (Homo sapiens, UniProt Q05397)", "T2 construct": "purchased PamGene (PamChip PTK array, Upstream Kinase Analysis)", "T2 sequence (Q05397 whole entry)": "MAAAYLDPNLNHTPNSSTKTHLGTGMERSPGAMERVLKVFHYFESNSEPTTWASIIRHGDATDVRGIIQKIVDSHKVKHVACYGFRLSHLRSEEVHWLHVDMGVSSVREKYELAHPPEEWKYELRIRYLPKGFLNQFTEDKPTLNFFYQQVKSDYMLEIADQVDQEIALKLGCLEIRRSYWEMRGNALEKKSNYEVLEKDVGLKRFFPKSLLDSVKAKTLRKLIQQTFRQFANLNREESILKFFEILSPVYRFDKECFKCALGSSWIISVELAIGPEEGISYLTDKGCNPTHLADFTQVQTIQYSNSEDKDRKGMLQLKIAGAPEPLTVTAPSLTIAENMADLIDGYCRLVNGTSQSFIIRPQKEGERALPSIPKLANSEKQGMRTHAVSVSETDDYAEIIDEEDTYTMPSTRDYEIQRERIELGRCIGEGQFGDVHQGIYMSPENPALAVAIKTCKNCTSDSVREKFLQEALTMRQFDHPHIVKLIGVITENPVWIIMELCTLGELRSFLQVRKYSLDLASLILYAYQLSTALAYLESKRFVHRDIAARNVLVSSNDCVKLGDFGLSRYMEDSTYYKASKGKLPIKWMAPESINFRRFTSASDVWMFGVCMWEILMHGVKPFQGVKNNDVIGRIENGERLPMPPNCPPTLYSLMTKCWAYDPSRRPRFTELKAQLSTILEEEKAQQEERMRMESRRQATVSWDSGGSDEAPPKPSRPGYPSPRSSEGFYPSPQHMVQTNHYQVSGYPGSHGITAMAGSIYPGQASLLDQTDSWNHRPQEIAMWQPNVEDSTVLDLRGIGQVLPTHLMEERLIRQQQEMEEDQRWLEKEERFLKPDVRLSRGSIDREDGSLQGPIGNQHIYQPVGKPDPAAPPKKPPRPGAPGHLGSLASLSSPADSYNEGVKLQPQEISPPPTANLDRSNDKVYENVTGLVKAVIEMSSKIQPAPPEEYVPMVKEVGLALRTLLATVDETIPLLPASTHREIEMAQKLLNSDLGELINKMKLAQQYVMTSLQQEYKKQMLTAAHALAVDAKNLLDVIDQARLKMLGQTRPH", "procedure,_shortened": "as §1"}, "[3]": {"target": "T3, Fes (P07332) (Homo sapiens, UniProt P07332)", "T3 construct": "purchased PamGene (PamChip PTK array, Upstream Kinase Analysis)", "procedure,_shortened": "as §1"}, "[4]": {"target": "T4, PDGFR[alpha] (P16234) (Homo sapiens, UniProt P16234)", "T4 construct": "purchased PamGene (PamChip PTK array, Upstream Kinase Analysis)", "T4 sequence (P16234 24-1089)": "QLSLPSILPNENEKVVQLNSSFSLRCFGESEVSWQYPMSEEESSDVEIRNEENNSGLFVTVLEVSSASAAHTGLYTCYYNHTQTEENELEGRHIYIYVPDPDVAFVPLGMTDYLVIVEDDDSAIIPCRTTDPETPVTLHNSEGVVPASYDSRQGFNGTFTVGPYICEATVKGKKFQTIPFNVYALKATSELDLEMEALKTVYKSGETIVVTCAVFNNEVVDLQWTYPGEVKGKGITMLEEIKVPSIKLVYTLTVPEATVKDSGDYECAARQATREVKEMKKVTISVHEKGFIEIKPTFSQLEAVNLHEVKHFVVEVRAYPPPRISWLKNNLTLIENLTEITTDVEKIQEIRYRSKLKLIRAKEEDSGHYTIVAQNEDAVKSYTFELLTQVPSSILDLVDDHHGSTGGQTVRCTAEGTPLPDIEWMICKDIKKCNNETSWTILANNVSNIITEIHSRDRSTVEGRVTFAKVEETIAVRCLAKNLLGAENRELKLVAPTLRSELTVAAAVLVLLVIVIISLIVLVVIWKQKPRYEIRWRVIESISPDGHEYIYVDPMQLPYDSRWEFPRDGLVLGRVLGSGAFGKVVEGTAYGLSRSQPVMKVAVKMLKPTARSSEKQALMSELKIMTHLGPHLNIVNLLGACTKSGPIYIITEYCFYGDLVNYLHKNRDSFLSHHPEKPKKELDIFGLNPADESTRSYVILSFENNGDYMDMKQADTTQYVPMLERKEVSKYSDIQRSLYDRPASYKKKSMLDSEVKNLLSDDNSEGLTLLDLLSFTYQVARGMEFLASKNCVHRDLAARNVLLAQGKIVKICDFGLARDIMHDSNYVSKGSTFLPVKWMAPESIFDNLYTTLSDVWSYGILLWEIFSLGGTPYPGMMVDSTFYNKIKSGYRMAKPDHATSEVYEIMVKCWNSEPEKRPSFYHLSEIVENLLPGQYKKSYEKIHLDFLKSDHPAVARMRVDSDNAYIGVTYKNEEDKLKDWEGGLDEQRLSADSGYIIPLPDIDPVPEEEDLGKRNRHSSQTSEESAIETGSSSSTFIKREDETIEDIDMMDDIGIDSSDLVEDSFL", "procedure,_shortened": "as §1"}, "[5]": {"target": "T5, Met (P08581) (Homo sapiens, UniProt P08581)", "T5 construct": "purchased PamGene (PamChip PTK array, Upstream Kinase Analysis)", "T5 sequence (P08581 25-1390)": "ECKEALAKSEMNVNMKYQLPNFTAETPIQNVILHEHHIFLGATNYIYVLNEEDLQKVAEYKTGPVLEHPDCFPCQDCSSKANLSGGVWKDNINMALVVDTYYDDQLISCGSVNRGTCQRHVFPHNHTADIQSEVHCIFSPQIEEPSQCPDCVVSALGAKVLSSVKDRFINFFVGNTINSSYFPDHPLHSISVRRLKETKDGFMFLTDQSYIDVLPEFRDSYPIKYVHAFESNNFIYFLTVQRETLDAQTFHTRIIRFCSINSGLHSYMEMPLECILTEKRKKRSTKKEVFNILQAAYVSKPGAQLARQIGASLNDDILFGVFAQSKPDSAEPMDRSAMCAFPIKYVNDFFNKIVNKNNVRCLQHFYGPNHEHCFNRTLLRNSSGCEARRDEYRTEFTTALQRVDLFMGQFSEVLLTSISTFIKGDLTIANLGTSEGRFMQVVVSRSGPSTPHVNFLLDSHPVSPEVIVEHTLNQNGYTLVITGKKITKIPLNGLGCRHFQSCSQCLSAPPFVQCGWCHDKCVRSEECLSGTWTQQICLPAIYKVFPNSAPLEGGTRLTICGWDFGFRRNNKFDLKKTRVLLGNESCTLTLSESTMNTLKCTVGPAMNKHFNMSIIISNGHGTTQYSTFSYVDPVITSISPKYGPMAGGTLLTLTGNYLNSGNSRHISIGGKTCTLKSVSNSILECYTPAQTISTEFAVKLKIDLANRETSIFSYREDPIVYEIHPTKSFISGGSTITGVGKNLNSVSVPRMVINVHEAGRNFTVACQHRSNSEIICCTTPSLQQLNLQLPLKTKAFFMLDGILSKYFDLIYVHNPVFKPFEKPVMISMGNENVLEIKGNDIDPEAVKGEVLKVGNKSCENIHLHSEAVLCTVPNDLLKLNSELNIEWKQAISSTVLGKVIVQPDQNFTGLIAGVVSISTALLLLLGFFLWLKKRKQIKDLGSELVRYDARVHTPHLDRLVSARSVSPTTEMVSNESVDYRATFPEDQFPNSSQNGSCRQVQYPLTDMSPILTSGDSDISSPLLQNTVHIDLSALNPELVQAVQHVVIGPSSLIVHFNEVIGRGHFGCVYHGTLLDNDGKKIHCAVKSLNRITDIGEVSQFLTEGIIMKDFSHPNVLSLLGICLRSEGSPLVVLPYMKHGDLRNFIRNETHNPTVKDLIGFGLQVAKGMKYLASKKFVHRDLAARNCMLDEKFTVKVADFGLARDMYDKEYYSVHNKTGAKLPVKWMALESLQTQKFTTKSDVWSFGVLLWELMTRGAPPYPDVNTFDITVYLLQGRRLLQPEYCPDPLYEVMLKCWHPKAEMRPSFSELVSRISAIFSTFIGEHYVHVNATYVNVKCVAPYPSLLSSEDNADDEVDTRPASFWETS", "procedure,_shortened": "as §1"}, "[6]": {"target": "T6, ITK (Q08881) (Homo sapiens, UniProt Q08881)", "T6 construct": "purchased PamGene (PamChip PTK array, Upstream Kinase Analysis)", "T6 sequence (Q08881 1-620)": "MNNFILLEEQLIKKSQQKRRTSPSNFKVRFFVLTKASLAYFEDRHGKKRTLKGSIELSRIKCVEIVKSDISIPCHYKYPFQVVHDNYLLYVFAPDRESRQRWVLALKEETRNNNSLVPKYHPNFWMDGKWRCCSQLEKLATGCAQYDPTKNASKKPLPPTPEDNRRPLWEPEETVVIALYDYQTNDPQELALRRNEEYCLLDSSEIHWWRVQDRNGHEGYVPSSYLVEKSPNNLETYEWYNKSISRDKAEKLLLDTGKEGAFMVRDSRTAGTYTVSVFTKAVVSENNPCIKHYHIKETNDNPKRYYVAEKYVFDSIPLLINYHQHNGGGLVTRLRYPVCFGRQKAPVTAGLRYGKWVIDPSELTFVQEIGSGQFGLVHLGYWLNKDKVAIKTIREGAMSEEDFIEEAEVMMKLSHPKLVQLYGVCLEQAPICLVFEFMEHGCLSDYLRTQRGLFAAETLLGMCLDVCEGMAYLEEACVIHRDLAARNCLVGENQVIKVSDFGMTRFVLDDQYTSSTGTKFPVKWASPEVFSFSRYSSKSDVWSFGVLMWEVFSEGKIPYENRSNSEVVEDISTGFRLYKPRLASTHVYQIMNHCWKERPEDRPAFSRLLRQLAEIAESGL", "procedure,_shortened": "as §1"}}, "note": "Values joined by “and” are separate entries in the source; they are usually repeats but may differ in a detail not shown here. Identical values can stand only once.", "data": [{"smiles": "COc1ccc(/C=C2\\N=C(C)N(c3ccc(CC(=O)NCc4ccccc4)cc3)C2=O)cc1", "note": "[Compound 4c, (Z)-N-Benzyl-2-(4-(4-(4-methoxybenzylidene)-2-methyl-5-oxo-4,5-dihydro-1H-imidazol-1-yl)phenyl)acetamide]", "values": [{"measurement": "Mean Final score (Kinase score)", "setting": "[1]", "result": 2.115}, {"measurement": "Mean Kinase Statistic", "setting": "[1]", "result": -1.085}, {"measurement": "Mean Significance Score", "setting": "[1]", "result": 2.048}, {"measurement": "Mean Specificity Score", "setting": "[1]", "result": 0.07369}, {"measurement": "Mean Final score (Kinase score)", "setting": "[2]", "result": 2.506}, {"measurement": "Mean Kinase Statistic", "setting": "[2]", "result": -1.237}, {"measurement": "Mean Significance Score", "setting": "[2]", "result": 2.048}, {"measurement": "Mean Specificity Score", "setting": "[2]", "result": 0.5313}, {"measurement": "Mean Significance Score", "setting": "[3]", "result": 2.048}, {"measurement": "Mean Specificity Score", "setting": "[3]", "result": 1.058}, {"measurement": "Mean Final score (Kinase score)", "setting": "[3]; listed as KIM-161", "result": "3.13 and 3.128"}, {"measurement": "Mean Final score (Kinase score)", "setting": "[4]", "result": 1.95}, {"measurement": "Mean Kinase Statistic", "setting": "[4]", "result": -1.208}, {"measurement": "Mean Significance Score", "setting": "[4]", "result": 1.701}, {"measurement": "Mean Specificity Score", "setting": "[4]", "result": 0.3388}, {"measurement": "Mean Final score (Kinase score)", "setting": "[5]", "result": 2.5}, {"measurement": "Mean Kinase Statistic", "setting": "[5]", "result": -1.184}, {"measurement": "Mean Significance Score", "setting": "[5]", "result": 2.048}, {"measurement": "Mean Specificity Score", "setting": "[5]", "result": 0.4367}, {"measurement": "Mean Significance Score", "setting": "[6]", "result": 2.048}, {"measurement": "Mean Specificity Score", "setting": "[6]", "result": 2.074}, {"measurement": "Mean Final score (Kinase score)", "setting": "[6]; listed as KIM-161", "result": "3.95 and 3.951"}]}]}
